Read-outs that look alike come from different tables or passages of the source.
Key:
[1] = MTS cytotoxicity assay
Description: (§1) The study utilized human cell lines including PC-3 (human prostate adenocarcinoma), HSF (primary human skin fibroblasts), MDA-MB-231 (estrogen-negative breast adenocarcinoma), MCF-7 (estrogen-positive breast adenocarcinoma), MSC (multipotent stem cells derived from adipose tissue), SF-539 (brain gliosarcoma), SNB-19 (glioblastoma), A-498 (kidney carcinoma), M-14 (human melanoma), NCI-H322-M (primary bronchioalveolar carcinoma), HCT-15 (colon adenocarcinoma), and HCT-116 (colorectal intestinal carcinoma). We also used immortalized C2C12 mouse myoblasts (ATCC—CRL-1772). Cancer cell lines were obtained from the ATCC collection and generously provided by the Fox Chase Cancer Center (Philadelphia, USA). Conditionally normal cells, including skin fibroblasts and multipotent stem cells, were isolated by our group from postoperative materials (skin and subcutaneous fat) obtained from a conditionally healthy donor. Reagents and consumables for cell culture work were purchased from PanEco (Russia).
(§2) The cytotoxicity of the compounds under study was assessed using MTS assay on cell cultures. Cells were seeded into 96-well plates at a concentration of 10,000–20,000 cells/mL. After 24 h, gradient concentrations of the compounds were added to the culture medium and the plates were incubated for 72 h. Subsequently, the culture medium was replaced with MTS reagents (Sigma-Aldrich, Burlington, MA, USA) (MTS:PMS (0.18:0.0092 mg/mL)) and dissolved in phenol-free RPMI 1640 medium. After 2 h of incubation, the resulting water-soluble formazan was measured using the TECAN Infinite M200 Pro microplate reader at wavelengths of 555/750 nm. As a control, equivalent volumes of the solvents in which each compound was dissolved (dH2O/DMSO) were used. To calculate the percentage of viable cells relative to the control, which was considered 100%, dose-response curves were plotted against the logarithm of the compound concentration. The concentration of the compound at which cell growth is inhibited by 50% relative to the control was taken as the inhibitory concentration IC50 and calculated using Origin Pro software 8.0.1. The study was conducted in triplicates and in three independent repetitions.

[2] = system: A-498; assay: MTS cytotoxicity assay; conditions: Homo sapiens, A498, 72 h, read-out: Cytotoxic concentration IC50, A-498
Description: as §1, §2

[3] = system: C2C12 (immortalized mouse myoblasts); assay: MTS cytotoxicity assay; conditions: for Inhibition of C2C12 cell proliferation: MTS assay, sufficiently high concentrations
Description: as §1, §2

[4] = system: HCT-116; assay: MTS cytotoxicity assay; conditions: for IC50: Homo sapiens; for IC25, HCT-116 / IC75, HCT-116: test concentration selected based on MTS data; for Times reduced cytotoxicity compared to doxorubicin, HCT-116 / Selectivity index IC50 HSF/IC50 HCT-116: MTS assay; for Selectivity index IC50 HSF/IC50 HCT-116: from the mean IC50 value for HSF cells
Description: as §1, §2

[5] = system: HCT-15; assay: MTS cytotoxicity assay; conditions: Homo sapiens, HCT-15, 72 h, read-out: Cytotoxic concentration IC50, HCT-15
Description: as §1, §2

[6] = system: M14; assay: MTS cytotoxicity assay; conditions: Homo sapiens, M14, 72 h, read-out: Cytotoxic concentration IC50, M14
Description: as §1, §2

[7] = system: MCF-7; assay: MTS cytotoxicity assay; conditions: for IC50: Homo sapiens; for Selectivity index IC50 HSF/IC50 MCF-7: from the mean IC50 value for HSF cells
Description: as §1, §2

[8] = system: MDA-MB-231; assay: MTS cytotoxicity assay; conditions: Homo sapiens, MDA-MB-231, 72 h, read-out: Cytotoxic concentration IC50, MDA-MB-231
Description: as §1, §2

[9] = system: NCI-H322M; assay: MTS cytotoxicity assay; conditions: Homo sapiens, 72 h, read-out: Cytotoxic concentration IC50, NCI-H322M
Description: as §1, §2

[10] = system: PC-3; assay: MTS cytotoxicity assay; conditions: for IC50: Homo sapiens; for Selectivity index IC50 HSF/IC50 PC-3: MTS assay, from the mean IC50 value for HSF cells
Description: as §1, §2

[11] = system: SF-539; assay: MTS cytotoxicity assay; conditions: Homo sapiens, SF-539, 72 h, read-out: Cytotoxic concentration IC50, SF-539
Description: as §1, §2

[12] = system: SNB-19; assay: MTS cytotoxicity assay; conditions: Homo sapiens, SNB-19, 72 h, read-out: Cytotoxic concentration IC50, SNB-19
Description: as §1, §2

[13] = MTS cytotoxicity assay; conditions: human
Description: as §1
The cytotoxicity of the compounds under study was assessed using MTS assay on cell cultures. Cells were seeded into 96-well plates at a concentration of 10,000–20,000 cells/mL. […] After 2 h of incubation, the resulting water-soluble formazan was measured using the TECAN Infinite M200 Pro microplate reader at wavelengths of 555/750 nm. […]

[14] = system: HCT-116; assay: Mitochondrial membrane potential, rhodamine 123 flow cytometry; format: cell-based, human; conditions: tumor cells (HCT-116 in Figure 4a), 72 h, IC50 or higher
Procedure: Cells were seeded in a 12-well plate at a density of 1 × 10^5 cells/well and incubated for 24 h at 37 °C in a humid atmosphere with 5% CO2 prior to treatment. Cells were bathed in complete DMEM media containing the respective compounds, using a solvent (dH2O/DMSO) as a negative control. After 72 h, the nutrient medium over cells containing the floating cells was collected into tubes, and then the adherent cells were trypsinized and added to the fraction of floating cells. Cell suspensions were then centrifuged, and the pellet was suspended in phosphate-buffered saline (PBS) to a final density of 5 × 10^5 cells/mL. Cell suspension in a volume of 250 μL and 500 nM rhodamine 123 were added to a rounded-well plate, followed by incubation for 30 min at 25° C. Measurements were conducted using flow cytometry on the Millipore Guava EasyCyte HT Flow Cytometer System in a green fluorescent channel.

[15] = system: PC-3 cells; conditions: for Olive Moment / Tail Area / Tail DNA % / Tail Intensity / Tail Length / Tail Moment: 3 days; for DNA breaks in the Comet assay (in words): PC-3, 72 h
Procedure: PC-3 and MCF-7 cells were seeded into 6-well plates at a concentration of 15,000 cells/mL. […] Cells were trypsinized and washed, then placed in 0.7% low melting point agarose and mounted on glass slides (200 000 cells/sample). Slides were treated with lysis solution (2.5 M NaCl, 0.1 M disodium EDTA, 1% Triton X-100, 10 mM Tris base, 10% DMSO, pH 10) for 1 h at 4 °C. Next, the samples were placed in an alkaline solution (12 g of NaOH brought to 1 L with water, disodium EDTA 0.2 M, pH >13) and incubated for 30 min at room temperature. Afterward, the slides were washed with electrophoresis 1X TBE buffer (10X TBE: 9.3 g disodium salt EDTA, 108 g Tris base, and 55 g boric acid per 1 L of water) twice and placed in the electrophoresis chamber. Electrophoresis was carried out under neutral conditions in 1X TBE buffer for 30 min at 31 V (at the rate of 1 V/cm). Afterward, the slides were washed in PBS (Ca free, Mg free) 2 times for 5 min, fixed in 96% ethanol for 5 min, and dried. Before analysis, 50 μL of SYBR Green solution (1μL stock + 10 mL TE buffer) was applied to the slides. Using an Observer Z1 fluorescent optical microscope (Carl Zeiss, Jena, Germany), photographs of cells were taken and analyzed in the ImageJ program (Plugin OpenComet).
“Tail moment” (TM) and “Olive moment” (OTM) were calculated using the following formula:(1) TM=(Fluor in tail/Fluor total )×tail lenght (2) OTM=(Tail mean−Head mean)×(Tail DNA %)/100.

[16] = HCT-116, 72 h, read-out: Cytotoxic concentration IC50, HCT-116
[17] = HCT-116, read-out: IC50, HCT-116
[18] = MCF7, 72 h, read-out: Cytotoxic concentration IC50, MCF-7
[19] = test concentration selected based on MTS data
[20] = PC-3, 72 h, read-out: Cytotoxic concentration IC50, PC-3

## COc1cccc2c1C(=O)c1c(O)c3c(c(O)c1C2=O)C[C@@](O)(C(=O)CO)C[C@@H]3O[C@H]1C[C@H](N)[C@H](O)[C@H](C)O1 [DOX, Doxorubicin, reference compound]
[1]; human, HSF primary skin fibroblasts
  IC50 at 72 h: 1120 ± 660 nM
[1]; mouse, C2C12 immortalized myoblasts
  IC50 at 72 h: 45 ± 4 nM
[2]
  IC50: 350 ± 60 nM
[3]
  Inhibition of C2C12 cell proliferation: ≥ 95%
[4]; [16]
  IC50: 1100 ± 640 nM
[4]; [17]
  IC50: 1000 nM
[4]
  IC25, HCT-116: 250 nM
  IC75, HCT-116: 2500 nM
[5]
  IC50: 460 ± 160 nM
[6]
  IC50: 160 ± 20 nM
[7]; [18]
  IC50: 90 ± 50 nM
[7]; MCF7, read-out: IC50, MCF-7
  IC50: 50 nM
[7]; [19]
  IC10, MCF-7: 10 nM
  IC25, MCF-7: 20 nM
  IC70, MCF-7: 200 nM
[8]
  IC50: 730 ± 250 nM
[9]
  IC50: 2460 ± 1180 nM
[10]; [20]
  IC50: 1050 ± 620 nM
[10]; PC-3, read-out: IC50, PC-3
  IC50: 1100 nM
[11]
  IC50: 530 ± 350 nM
[12]
  IC50: 100 ± 40 nM
[13]; MSC multipotent stem cells derived from adipose tissue
  IC50 at 72 h: 1100 ± 650 nM
[14]
  Effect on mitochondrial potential ΔΨ (in words): significant number of cells with reduced mitochondrial potential
[15]; PC-3, 0.5 µM (IC25)
  Olive Moment: 8.13
  Tail Area: 2215
  Tail DNA %: 22.7%
  Tail Intensity: 66
  Tail Length: 51
[15]; PC-3, 1.1 µM (IC50)
  Olive Moment: 11.64
  Tail Area: 1902
  Tail DNA %: 35.2%
  Tail Intensity: 74
  Tail Length: 51
[15]
  DNA breaks in the Comet assay (in words): induces DNA breaks

## COc1cccc2c1C(=O)c1c(O)c3c(c(O)c1C2=O)CC(O)(C(=O)CO)CC3OC1CC(NC(=O)c2cnc(C)c3c2COC(C)(C)O3)C(O)C(C)O1 (centres unmarked) [DOX-1, N-(3-hydroxy-2-methyl-6-((3,5,12-trihydroxy-3-(2-hydroxyacetyl)-10-methoxy-6,11-dioxo-1,2,3,4,6,11-hexahydrotetracen-1-yl)oxy)tetrahydro-2H-pyran-4-yl)-2,2,8-trimethyl-4H-[1,3]dioxino[4,5-c]pyridine-5-carboxamide]
[1]; mouse
  IC50 at 72 h: 230 ± 160 nM
[2]
  IC50: 4460 ± 3190 nM
[3]
  Inhibition of C2C12 cell proliferation: ≥ 95%
[4]; [16]
  IC50: 4630 ± 550 nM
[4]; [17]
  IC50: 4000 nM
[4]
  Times reduced cytotoxicity compared to doxorubicin, HCT-116: 4.2
  Selectivity index IC50 HSF/IC50 HCT-116: 1.28 ± 0.18
  IC25, HCT-116: 1700 nM
  IC75, HCT-116: 9000 nM
[5]
  IC50: > 100000 nM
[6]
  IC50: 4290 ± 1560 nM
[7]; [18]
  IC50: 1880 ± 480 nM
[7]; MTS assay
  Times less potent than unmodified doxorubicin, MCF-7: 20.9
  Selectivity index IC50 HSF/IC50 MCF-7: 3.32 ± 0.87
[8]
  IC50: 4050 ± 960 nM
[9]
  IC50: 7200 ± 4760 nM
[10]; [20]
  IC50: 5410 ± 880 nM
[10]; PC-3, read-out: IC50, PC-3
  IC50: 6100 nM
[10]
  Selectivity index IC50 HSF/IC50 PC-3: 1.12 ± 0.24
[10]; concentration and corresponding IC used in the Comet assay
  IC25, PC-3: 3 µM (IC25)
[11]
  IC50: 2060 ± 180 nM
[12]
  IC50: 5080 ± 3400 nM
[14]
  Effect on mitochondrial potential ΔΨ (in words): significant number of cells with reduced mitochondrial potential
other
  melting point: 165 to 167 °C (dec.)
[15]; PC-3, 3 µM (IC25)
  Olive Moment: 2.48
  Tail Area: 1094
  Tail DNA %: 6.7%
  Tail Intensity: 34
  Tail Length: 10
  Tail Moment: 1.07
[15]; PC-3, 6.1 µM (IC50)
  Olive Moment: 2.24
  Tail Area: 1196
  Tail DNA %: 6.7%
  Tail Intensity: 30
  Tail Length: 17
  Tail Moment: 1.36
[15]; PC-3, 11.3 µM (IC70)
  Olive Moment: 3.79
  Tail Area: 1403
  Tail DNA %: 11.4%
  Tail Intensity: 37
  Tail Length: 12
  Tail Moment: 1.87
[15]
  DNA breaks in the Comet assay (in words): do not cause DNA breaks

## COc1cccc2c1C(=O)c1c(O)c3c(c(O)c1C2=O)CC(O)(C(=O)CO)CC3OC1CC(NC(=O)/C=C/c2cnc(C)c3c2COC(C)(C)O3)C(O)C(C)O1 (centres unmarked) [DOX-2, (E)-N-(3-hydroxy-2-methyl-6-((3,5,12-trihydroxy-3-(2-hydroxyacetyl)-10-methoxy-6,11-dioxo-1,2,3,4,6,11-hexahydrotetracen-1-yl)oxy)tetrahydro-2H-pyran-4-yl)-3-(2,2,8-trimethyl-4H-[1,3]dioxino[4,5-c]pyridin-5-yl)acrylamide]
[1]; human
  IC50 at 72 h: > 200000 nM
[1]; mouse
  IC50 at 72 h: 2800 ± 1710 nM
[2]
  IC50: 41700 ± 7420 nM
[3]; Mus musculus, C2C12, read-out: Inhibition of C2C12
  inhibition at 200 µM: ≤ 60%
[4]; [16]
  IC50: 1430 ± 290 nM
[4]
  Times reduced cytotoxicity compared to doxorubicin, HCT-116: 1.3
  Selectivity index IC50 HSF/IC50 HCT-116: >140
[5]
  IC50: > 200000 nM
[6]
  IC50: 2610 ± 240 nM
[7]; [18]
  IC50: 770 ± 150 nM
[7]; MTS assay
  Selectivity index for MCF-7, times greater than that of doxorubicin: 15
  Times less potent than unmodified doxorubicin, MCF-7: 8.5
  Selectivity index IC50 HSF/IC50 MCF-7: >260
[8]
  IC50: 1580 ± 1030 nM
[9]
  IC50: > 200000 nM
[10]; [20]
  IC50: 1970 ± 310 nM
[10]
  Selectivity index IC50 HSF/IC50 PC-3: >100
[11]
  IC50: 1740 ± 110 nM
[12]
  IC50: 870 ± 100 nM
[13]
  IC50 at 72 h: > 200000 nM
other
  melting point: 175 to 176 °C (dec.)
